Laboratory results as given in patent US11008346B2, “Beta-lactamase inhibitors” (priority 2014, dated 2021).
Read-outs that look alike come from different tables or passages of the source.

How the values were obtained:
[1] = target: T1, SHV-5 β-lactamase (Klebsiella pneumoniae, UniProt P0A3M1); assay: β-lactamase enzyme inhibition, SHV-5; type: biochemical
T1 construct: made in house; host or cells: E. coli BL21(DE3)
Description: (§1) For SHV-5, Kpc-2, p99AmpC and OXA-1 β-lactamases, E. coli BL21(DE3) bacterial cells carrying expression plasmids (expressed as native untagged proteins) for the individual β-lactamases were grown in 1 L of Superbroth (Teknova Inc. Hollister, Calif.) supplemented with 100 μg/ml kanamycin selection and 1×5052 (0.5% glycerol, 0.05% glucose and 0.2% α-lactose) at 35° C. for 18-20 hours. Cells were harvested by centrifugation (4,000×g, 4° C., 20 min), resuspended in 50 ml of 10 mM HEPES pH 7.5 ( 1/20 of the initial volume). The cells were lysed by sonication (5 pulses of 45 seconds) at 45 W on ice. The lysates were clarified by centrifugation at 10,000×g for 40 minutes at 4° C. Samples were diluted 5-fold in 50 mM sodium acetate pH 5.0, stored overnight at 4° C., after which they were centrifuged at 10,000×g for 30 minutes to clarify, and filtered through 0.45 μm filters. The samples were loaded onto a 5 ml Capto S sepharose cation exchange column (GE Healthcare) pre-equilibrated with 50 mM sodium acetate pH 5.0. The column was washed with 5 column volumes of 50 mM sodium acetate pH 5.0 to wash out unbound protein and a linear gradient of NaCl (0 to 500 mM) was used to elute the protein (over 16 CV) from the column. Fractions were assayed for […] activity using Centa (Calbiochem, Gibbstown, N.J.) or Nitrocefin (EMD Millipore chemicals, Darmstadt, Germany) as a reporter β-lactamase substrate for activity in the isolated fractions. Active fractions were pooled, concentrated and further purified by gel filtration chromatography on a Superdex 75 prep grade gel filtration column (GE Healthcare, Piscataway, N.J.) pre-equilibrated in 50 mM Hepes pH 7.5, 150 mM NaCl. Active fractions were pooled, concentrated, and quantitated by BCA protein determination (Thermo Scientific, Rockford, Ill.), dialyzed into PBS and frozen at −80° C. in 20% glycerol until use.
(§2) An equal volume of diluted enzyme stock was added, and the plates were incubated at 37° C. for 15 min. Nitrocefin was used as substrate for p99 AmpC, VIM-2 and OXA-1 and dispensed into each well at a final concentration of 100 μM. Absorbance at 486 nm was immediately monitored for 10 min using a Biotek Powerwave XS2 microplate spectrophotometer using the GEN5 software package (Biotek Instruments, Winooski Vt.). In an analogous fashion, imipenem was used as substrate for KPC-2 and Cefotaxime was used for SHV-5, while changes in absorbance upon hydrolysis of the β-lactam ring were monitored at 300 nm and 260 nm respectively in UV-transparent 96-well microtiter assay plates. Maximum rates of hydrolysis were compared to those in control wells (without inhibitors), and percentages of enzyme inhibition were calculated for each concentration of inhibitor. The concentration of inhibitor needed to reduce the initial rate of hydrolysis of substrate by 50% (IC50) was calculated as the residual activity of β-lactamase at 486 nm using GraFit version 7 kinetics software package (Erithacus Software, Surrey, UK).
(§3) Using the methodology described above, examples of the current invention were evaluated for their ability to inhibit β-lactamase enzymes from all four Ambler classifications (A through D). […] NT=Not tested.

[2] = target: T2, KPC-2 β-lactamase (Klebsiella pneumoniae, UniProt Q9F663); assay: β-lactamase enzyme inhibition, KPC-2; type: biochemical
T2 construct: made in house; host or cells: E. coli BL21(DE3)
T2 sequence (Q9F663 25-293, looked up): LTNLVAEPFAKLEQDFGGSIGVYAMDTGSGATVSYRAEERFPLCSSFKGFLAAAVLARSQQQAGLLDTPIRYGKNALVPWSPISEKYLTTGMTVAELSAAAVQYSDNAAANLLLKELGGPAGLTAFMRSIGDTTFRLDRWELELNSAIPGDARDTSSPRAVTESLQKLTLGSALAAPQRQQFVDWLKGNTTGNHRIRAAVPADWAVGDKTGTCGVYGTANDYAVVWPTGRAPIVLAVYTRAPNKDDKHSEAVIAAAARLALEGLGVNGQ
Description: as §1, §2, §3

[3] = target: T3, VIM-2 metallo β-lactamase (Pseudomonas aeruginosa, UniProt Q9K2N0); assay: β-lactamase enzyme inhibition, VIM-2; type: biochemical; settings: Nitrocefin 100 μM, 486 nm; 15 min at 37° C. preincubation; read-out: IC50 VIM-2 (Class B)
T3 construct: made in house; host or cells: E. coli BL21(DE3)
Description: For VIM-2 metallo β-lactamase, the procedure was identical with the following exceptions, first the protein was not pH adjusted to pH 5 with 50 mM sodium acetate. Second, the chromatography step was changed to a 5 ml Q sepharose anion exchange column pre-equilibrated with 50 mM Hepes pH 7.5, and elution of the protein was achieved by a linear gradient of NaCl (0-600 mM). Finally, the VIM-2 purification required a second run (3rd step) on the Q sepharose anion exchange column to achieve acceptable purity (>90%).
as §2, §3

[4] = target: T4, p99 AmpC β-lactamase (Enterobacter cloacae, UniProt P05364); assay: β-lactamase enzyme inhibition, p99 AmpC; type: biochemical
T4 construct: made in house; host or cells: E. coli BL21(DE3)
T4 sequence (P05364 21-381): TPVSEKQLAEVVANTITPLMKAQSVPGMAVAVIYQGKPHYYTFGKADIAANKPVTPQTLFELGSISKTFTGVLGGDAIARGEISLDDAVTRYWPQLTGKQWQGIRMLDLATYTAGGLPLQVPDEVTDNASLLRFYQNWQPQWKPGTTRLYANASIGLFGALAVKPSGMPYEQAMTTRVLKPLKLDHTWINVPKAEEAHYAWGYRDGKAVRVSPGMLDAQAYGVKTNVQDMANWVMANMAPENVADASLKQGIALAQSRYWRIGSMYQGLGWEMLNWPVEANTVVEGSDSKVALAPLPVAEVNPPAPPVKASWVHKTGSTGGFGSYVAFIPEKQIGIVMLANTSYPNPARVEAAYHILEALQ
Description: as §1, §2
Using the methodology described above, examples of the current invention were evaluated for their ability to inhibit β-lactamase enzymes from all four Ambler classifications (A through D).

[5] = target: T5, OXA-1 β-lactamase (Escherichia coli, UniProt P13661); assay: β-lactamase enzyme inhibition, OXA-1; type: biochemical; settings: Nitrocefin 100 μM, 486 nm; 15 min at 37° C. preincubation; read-out: IC50 OXA-1 (Class D)
T5 construct: made in house; host or cells: E. coli BL21(DE3)
T5 sequence (P13661 26-276): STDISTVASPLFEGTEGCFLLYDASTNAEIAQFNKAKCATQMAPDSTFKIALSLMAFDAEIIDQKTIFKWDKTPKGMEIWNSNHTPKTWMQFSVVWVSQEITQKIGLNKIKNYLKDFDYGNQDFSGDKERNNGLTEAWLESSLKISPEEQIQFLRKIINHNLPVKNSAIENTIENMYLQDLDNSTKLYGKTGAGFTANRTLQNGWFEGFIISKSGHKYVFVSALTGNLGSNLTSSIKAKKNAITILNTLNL
Description: as §1, §2, §3

[6] = system: E. coli ESBL4 expressing CTX-M-15; assay: broth microdilution MIC, E. coli CTX-M-15; type: cell-based; settings: Fixed CAZ (ceftazidime) 4 μg/mL
Source text: (§4) To determine the ability of test compounds to potentiate the inhibition of the growth of bacterial strains that produce beta-lactamase enzymes, classic cell based broth microdilution MIC assays were employed. Six bacteria strains producing beta-lactamase enzymes were used: E. coli expressing the Class A Extended Spectrum Beta-Lactamase (ESBL) CTX-M-15, E. cloacae expressing the Class C P99, K. pneumoniae expressing the Class A carbapenemase KPC-3, P. aeruginosa expressing the Class B carbapenemase VIM-2, K pneumoniae expressing the class A carbapenemase KPC-2 and the class B carbapenemase VIM-4, and S. aureus producing the Class A penicillinase PC-1. The assay was conducted in Cation Adjusted Mueller Hinton Broth (CAMHB, BD #212322, BD Diagnostic Systems, Sparks, Md.). Bacteria strains were grown for 3-5 hours in CAMBH broth. Test compounds were added to a microtiter plate in 2-fold serial dilutions in CAMHB in a final concentration range of 32 μg/mL to 0.25 μg/ml. An overlay of CAMHB containing a Beta-lactam was added to the compounds at a final static concentration of 4 μg/ml. […] In addition to the titration of test compounds the MICs of a panel of control beta-lactams is also tested to ensure the strains are behaving consistently from test to test. Once the test compound and antibiotics are added the plates can be inoculated according to CLSI broth microdilution method. After inoculation the plates are incubated for 16-20 hours at 37° C., then the Minimal Inhibitory Concentration (MIC) of the test compound is determined visually.
(§5) Using the methodology described above, examples of the current invention were evaluated for their ability to inhibit the growth of β-lactamase-producing bacteria in the presence of a β-lactam antibiotic.
(§6) Representative results are shown in Table 4 where A represents an MIC of the fixed β-lactam antibiotic in the presence of >32 µg/mL of a β-lactamase inhibitor of exemplary compounds, B represents the MIC in the presence of between 8 and 32 µg/mL of a β-lactamase inhibitor of exemplary compounds, and C represents the MIC in the presence of ≤4 µg/mL of a β-lactamase inhibitor of exemplary compounds. NT=Not Tested.

[7] = system: E. cloacae 144200 expressing Class C P99 AmpC; assay: broth microdilution MIC, E. cloacae P99; type: cell-based; settings: Fixed CAZ (ceftazidime) 4 μg/mL
Source text: as §4, §5, §6

[8] = system: K. pneumoniae 156319 expressing KPC-3; assay: broth microdilution MIC, K. pneumoniae KPC-3; type: cell-based; settings: Fixed Mero (meropenem) 4 μg/mL
Source text: as §4, §5, §6

[9] = system: K. pneumoniae A-1797 expressing KPC-2 and VIM-4; assay: broth microdilution MIC, K. pneumoniae KPC-2 and VIM-4; type: cell-based; settings: Fixed Mero (meropenem) 4 μg/mL
Source text: as §4, §5, §6

[10] = imipenem substrate, 300 nm, 15 min at 37° C. preincubation, read-out: IC50 KPC-2 (Class A)

T1 sequence (P0A3M1 22-286): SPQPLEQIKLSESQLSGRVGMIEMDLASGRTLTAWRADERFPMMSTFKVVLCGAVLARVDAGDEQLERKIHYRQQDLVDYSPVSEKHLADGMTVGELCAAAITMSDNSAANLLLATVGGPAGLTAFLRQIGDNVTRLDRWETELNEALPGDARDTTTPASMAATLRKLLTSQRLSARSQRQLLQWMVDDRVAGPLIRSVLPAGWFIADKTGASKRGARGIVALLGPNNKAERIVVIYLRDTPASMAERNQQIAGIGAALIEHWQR

SMILES | IC50 [1] | IC50 [2, 10] | IC50 [3] | IC50 [4] | IC50 [5] | MIC of exemplary compounds in presence of fixed β-lactams, E. coli ESBL4 CTX-M-15 [6] | MIC of exemplary compounds in presence of fixed β-lactams, E. cl. 144200 p99 AmpC [7] | MIC of exemplary compounds in presence of fixed β-lactams, K.P. 156319 KPC-3 [8] | MIC of exemplary compounds in presence of fixed β-lactams, K.P. A-1797 KPC-2 VIM-4 [9] | IC50 [2]
NC(=O)NCC(=O)N[C@H]1Cc2cccc(C(=O)O)c2OB1O [Example 36, (R)-2-Hydroxy-3-(2-ureido-acetylamino)-3,4-dihydro-2H-benzo[e][1,2]oxaborinin-8-carboxylic acid] | < 100 nM | 100 to 1000 nM | 100 to 1000 nM | < 100 nM | < 100 nM | C (C represents the MIC in the presence of ≤4 g/mL of a β-lactamase inhibitor) | C (C represents the MIC in the presence of ≤4 g/mL of a β-lactamase inhibitor) | C (C represents the MIC in the presence of ≤4 g/mL of a β-lactamase inhibitor) | C (C represents the MIC in the presence of ≤4 g/mL of a β-lactamase inhibitor) | –
C#CCCC(=O)N[C@H]1Cc2cccc(C(=O)O)c2OB1O [Example 37, (R)-2-Hydroxy-3-pent-4-ynoylamino-3,4-dihydro-2H-benzo[e][1,2]oxaborinine-8-carboxylic acid] | < 100 nM | – | 1000 to 10000 nM | < 100 nM | < 100 nM | C (C represents the MIC in the presence of ≤4 g/mL of a β-lactamase inhibitor) | C (C represents the MIC in the presence of ≤4 g/mL of a β-lactamase inhibitor) | C (C represents the MIC in the presence of ≤4 g/mL of a β-lactamase inhibitor) | B (B represents the MIC in the presence of between 8 and 32 g/mL of a β-lactamase inhibitor) | < 100 nM
O=C(CCC(=O)C(F)(F)F)N[C@H]1Cc2cccc(C(=O)O)c2OB1O [Example 38, (R)-2-Hydroxy-3-(5,5,5-trifluoro-4-oxo-pentanoylamino)-3,4-dihydro-2H-benzo[e][1,2]oxaborinine-8-carboxylicacid] | < 100 nM | 100 to 1000 nM | 1000 to 10000 nM | < 100 nM | < 100 nM | B (B represents the MIC in the presence of between 8 and 32 g/mL of a β-lactamase inhibitor) | C (C represents the MIC in the presence of ≤4 g/mL of a β-lactamase inhibitor) | B (B represents the MIC in the presence of between 8 and 32 g/mL of a β-lactamase inhibitor) | B (B represents the MIC in the presence of between 8 and 32 g/mL of a β-lactamase inhibitor) | –
CC(=O)/C=C/C(=O)N[C@H]1Cc2cccc(C(=O)O)c2OB1O [Example 39, (R)-2-Hydroxy-3-(4-oxo-pent-2-enoylamino)-3,4-dihydro-2H-benzo[e][1,2]oxaborinine-8-carboxylic acid] | < 100 nM | < 100 nM | 100 to 1000 nM | < 100 nM | < 100 nM | C (C represents the MIC in the presence of ≤4 g/mL of a β-lactamase inhibitor) | C (C represents the MIC in the presence of ≤4 g/mL of a β-lactamase inhibitor) | B (B represents the MIC in the presence of between 8 and 32 g/mL of a β-lactamase inhibitor) | B (B represents the MIC in the presence of between 8 and 32 g/mL of a β-lactamase inhibitor) | –
CC(C)(C)C(=O)CCC(=O)N[C@H]1Cc2cccc(C(=O)O)c2OB1O [Example 40, (R)-3-(5,5-Dimethyl-4-oxo-hexanoylamino)-2-hydroxy-3,4-dihydro-2H-benzo[e][1,2]oxaborinine-8-carboxylic acid] | < 100 nM | < 100 nM | 1000 to 10000 nM | < 100 nM | < 100 nM | C (C represents the MIC in the presence of ≤4 g/mL of a β-lactamase inhibitor) | C (C represents the MIC in the presence of ≤4 g/mL of a β-lactamase inhibitor) | B (B represents the MIC in the presence of between 8 and 32 g/mL of a β-lactamase inhibitor) | B (B represents the MIC in the presence of between 8 and 32 g/mL of a β-lactamase inhibitor) | –
